Source: patent publication US20240294541A1, “COMPOUNDS CONSTITUTING C20-MODIFIED SALINOMYCIN DERIVATIVES, A METHOD FOR OBTAINING THE SAME, A COMPOSITION CONTAINING THE SAME AND A USE OF SAID COMPOUNDS” (FILECLO SPOLKA Z OGRANICZONA ODPOWIEDZIALNOSCIA, priority 2021, published 2024)

Assays:
Type in all cases: cell-based
[1] = tested on: NCI-H23 (human lung cancer); test: In vitro cytotoxicity, SRB assay, NCI-H23; settings: for IC50: Homo sapiens, NCI-H23, 72 h with compound, SRB, n/a = non-active compound, read-out: NCI-H23 IC50; for NCI-H23 SI: selectivity coefficient vs normal BALB/3T3 cells
Hs294T (human melanoma) = test: cells; settings: for IC50: Homo sapiens, Hs 294T, 72 h with compound, SRB, n/a = non-active compound, read-out: Hs294T IC50; for Hs294T SI: selectivity coefficient vs normal BALB/3T3 cells
[2] = tested on: MIA PaCa-2 (human pancreatic cancer); test: cells; settings: for IC50: Homo sapiens, MIA PaCa-2, 72 h with compound, SRB, n/a = non-active compound, read-out: MIA PaCa-2 IC50; for MIA PaCa-2 SI: selectivity coefficient vs normal BALB/3T3 cells
[3] = tested on: SNU-16 (human gastric cancer); test: cells; settings: for IC50: Homo sapiens, SNU-16, 72 h with compound, MTT, n/a = non-active compound, read-out: SNU-16 IC50; for SNU-16 SI: selectivity coefficient vs normal BALB/3T3 cells
[4] = tested on: BALB/3T3 (normal mouse fibroblasts); test: In vitro cytotoxicity, SRB assay, normal BALB/3T3 fibroblasts; settings: Mus musculus, BALB/3T3; normal cells; 72 h with compound, SRB; n/a = non-active compound; read-out: BALB/3T3 IC50
[5] = tested on: A2780 (human ovarian cancer); test: In vitro cytotoxicity, SRB assay, A2780; settings: for IC50: Homo sapiens, A2780, 72 h with compound, SRB, n/a = non-active compound, read-out: A2780 IC50; for A2780 SI: selectivity coefficient vs normal BALB/3T3 cells
[6] = tested on: PFSK-1 (malignant primitive neuroectodermal tumour); test: In vitro cytotoxicity, SRB assay, PFSK-1; settings: for IC50: Homo sapiens, PFSK-1, 72 h with compound, SRB, n/a = non-active compound, read-out: PFSK-1 IC50; for PFSK-1 SI: selectivity coefficient vs normal BALB/3T3 cells
[7] = tested on: A2780Cis (cisplatin-resistant human ovarian cancer); test: In vitro cytotoxicity, SRB assay, A2780Cis; settings: for IC50: Homo sapiens, A2780cis, 72 h, read-out: A2780Cis IC50 (nM)
A375 (human melanoma) = test: In vitro cytotoxicity, SRB assay, A375; settings: for IC50: Homo sapiens, A-375, 72 h with compound, SRB, n/a = non-active compound, read-out: A375 IC50; for A375 SI: selectivity coefficient vs normal BALB/3T3 cells
[8] = tested on: KG-1 (human acute myeloid leukaemia); test: In vitro cytotoxicity, MTT assay, KG-1; settings: for IC50: Homo sapiens, 72 h with compound, MTT, n/a = non-active compound; for KG-1 SI: selectivity coefficient vs normal BALB/3T3 cells
[9] = tested on: PLC/PRF/5 (human liver cancer); test: cells; settings: for IC50: Homo sapiens, PLC-PRF-5, 72 h with compound, SRB, n/a = non-active compound, read-out: PLC/PRF/5 IC50; for PLC/PRF/5 SI: selectivity coefficient vs normal BALB/3T3 cells

Row | SMILES | IC50 [1] | NCI-H23 SI [1] | IC50 (Hs294T (human melanoma)) | Hs294T SI (Hs294T (human melanoma)) | IC50 [2] | MIA PaCa-2 SI [2] | IC50 [3] | SNU-16 SI [3] | IC50 [4] | IC50 [5] | A2780 SI [5] | IC50 [6] | PFSK-1 SI [6] | A2780Cis RI [7] | A2780Cis SI [7] | IC50 [7] | IC50 (A375 (human melanoma)) | A375 SI (A375 (human melanoma)) | IC50 [8] | KG-1 SI [8] | also measured
1 | CC[C@@H](C(=O)[C@@H](C)[C@@H](O)[C@H](C)[C@@H]1O[C@@H]([C@@H](CC)C(=O)O)CC[C@@H]1C)[C@H]1O[C@]2(C=C[C@@H](NC(=O)NCc3ccc(F)cc3)[C@]3(CC[C@@](C)([C@H]4CC[C@](O)(CC)[C@H](C)O4)O3)O2)[C@H](C)C[C@@H]1C [FLC-00383-1] | 24.6 nM | 7.0 | 244 nM | 0.7 | 47.7 nM | 3.6 | 20.3 nM | 8.6 | 173 nM | 6.38 nM | 27.2 | 26 nM | 6.7 | 0.7 | 39.0 | 4.45 nM | 205 nM | 0.8 | 30.6 nM | 5.7 | IC50 [9]: 3.35 nM; PLC/PRF/5 SI [9]: 51.7
2 | CC[C@@H](C(=O)[C@@H](C)[C@@H](O)[C@H](C)[C@@H]1O[C@@H]([C@@H](CC)C(=O)O)CC[C@@H]1C)[C@H]1O[C@]2(C=C[C@@H](NC(=O)Nc3ccccc3C(F)(F)F)[C@]3(CC[C@@](C)([C@H]4CC[C@](O)(CC)[C@H](C)O4)O3)O2)[C@H](C)C[C@@H]1C [FLC-00381-1] | 46.3 nM | 3.4 | 138 nM | 1.2 | 69.6 nM | 2.3 | 63.8 nM | 2.5 | 159 nM | 13.4 nM | 11.9 | 50.4 nM | 3.2 | 0.5 | 21.7 | 7.34 nM | 189 nM | 0.8 | 36.4 nM | 4.4 | IC50 [9]: 62.4 nM; PLC/PRF/5 SI [9]: 2.5
3 | C=CCNC(=O)N[C@@H]1C=C[C@]2(O[C@H]([C@@H](CC)C(=O)[C@@H](C)[C@@H](O)[C@H](C)[C@@H]3O[C@@H]([C@@H](CC)C(=O)O)CC[C@@H]3C)[C@@H](C)C[C@H]2C)O[C@@]12CC[C@@](C)([C@H]1CC[C@](O)(CC)[C@H](C)O1)O2 [FLC-00353-1] | 410 nM | 0.6 | 612 nM | 0.4 | 28.9 nM | 7.8 | 88.6 nM | 2.6 | 227 nM | 1.14 nM | 199.8 | 13.4 nM | 16.9 | 1.1 | 180.6 | 1.26 nM | 107 nM | 2.1 | 34.3 nM | 6.6 | IC50 [9]: 31.5 nM; PLC/PRF/5 SI [9]: 7.2
4 | CC[C@@H](C(=O)[C@@H](C)[C@@H](O)[C@H](C)[C@@H]1O[C@@H]([C@@H](CC)C(=O)O)CC[C@@H]1C)[C@H]1O[C@]2(C=C[C@@H](NC(=O)NC3CCCCC3)[C@]3(CC[C@@](C)([C@H]4CC[C@](O)(CC)[C@H](C)O4)O3)O2)[C@H](C)C[C@@H]1C [FLC-00384-1] | 27.7 nM | 3.8 | 141 nM | 0.7 | 62.6 nM | 1.7 | 21.1 nM | 5.0 | 105 nM | 4.04 nM | 25.9 | 10 nM | 10.5 | 0.3 | 80.0 | 1.31 nM | 120 nM | 0.9 | 19.7 nM | 5.3 | IC50 [9]: 28.2 nM; PLC/PRF/5 SI [9]: 3.7
5 | CC[C@@H](C(=O)[C@@H](C)[C@@H](O)[C@H](C)[C@@H]1O[C@@H]([C@@H](CC)C(=O)O)CC[C@@H]1C)[C@H]1O[C@]2(C=C[C@@H](NC(=S)Nc3ccc(C)cc3)[C@]3(CC[C@@](C)([C@H]4CC[C@](O)(CC)[C@H](C)O4)O3)O2)[C@H](C)C[C@@H]1C [FLC-00382-1] | 3.92 nM | 13.2 | 61.1 nM | 0.8 | 36.5 nM | 1.4 | 5.15 nM | 10.0 | 51.6 nM | 0.84 nM | 61.4 | 3.75 nM | 13.8 | 0.4 | 157.5 | 0.33 nM | 44.2 nM | 1.2 | 9.84 nM | 5.2 | IC50 [9]: 5.15 nM; PLC/PRF/5 SI [9]: 10.0
